Laboratory results published in US20210345607A1, “MICROEMULSION FORMULATION CONTAINING CLACYFOS HERBICIDE, PREPARATION METHOD THEREFOR AND USE THEREOF” (Central China Normal University, priority 2018, published 2021).

Columns and labels:
wheat = assay: Safety of 15% and 25% clacyfos microemulsion used in wheat fields, increase in production (B9); type: in vivo
Description: The microemulsion of 15% clacyfos (the amount of clacyfos added is 15%, the preparation process is referred to preparation example A3) is in the dosage range of 180 g/hm^2 to 600 g/hm^2. The microemulsion of 25% clacyfos (the addition amount of the clacyfos is 25%, the preparation process is referred to preparation example A7) is in the dosage range of 150 g/hm^2 to 720 g/hm^2. At various testing areas, clacyfos was used by stems and leaves treatment of wheat field wheat seedlings.

[1] = system: Abutilontheophrasti Medicus; assay: Inhibitory activity of clacyfos against 22 plants or weeds (B12); conditions: in vivo
Description: (§1) Combining the results of indoor and field tests of clacyfos, the herbicidal spectrum of clacyfos can be summarized as follows:
(§2) Echinochloa crusgalli Beava; Digitaria Sanguinalis scop; Alopecurus aequalis; Alopecurus japonicus steud; Setaria viridis; Cynodon dactylon; Eleusine indica; Leptochloa chinensis; Arthraxon hispidus; Eleusine indica; Imperata cyllndrlca; Cyperus difformis; Cyperus iria; Kyllinga brevifolia; Poa cnnua; Monochoria vaginalis; Potamogeton distinctus; Sagittaria pygmaea; Cyperus iria; Eleocharis yokoscensis; Digitaria adscendens; Equisetum arvenense.

[2] = system: Alopecurus aequalis Sobol; assay: as above; conditions: in vivo
Description: as §1, §2

[3] = system: Amaranthus rebroflexus L.; assay: as above; conditions: in vivo
Description: as §1, §2

Amaranthus retroflexus = assay: as above; conditions: in vivo
Description: as §1, §2

Beta Vulgaris = assay: as above; conditions: in vivo
Description: as §1, §2

Brassica campestris = assay: as above; conditions: in vivo
Description: as §1, §2

Brassica pekinensis = assay: as above; conditions: in vivo
Description: as §1, §2

Chenopodium album L. = assay: as above; conditions: in vivo
Description: as §1, §2

Cyperus microiria = assay: as above; conditions: in vivo
Description: as §1, §2

Daucus carota L. = assay: as above; conditions: in vivo
Description: as §1, §2

[4] = system: Digitaria sanguinalis(L.) Scop; assay: as above; conditions: in vivo
Description: as §1, §2

[5] = system: Echinochloa crusgalli (L.); assay: as above; conditions: in vivo
Description: as §1, §2

Eclipta prostrata L. = assay: as above; conditions: in vivo
Description: as §1, §2

[6] = system: Eleusine indica (L.) Gaertn; assay: as above; conditions: in vivo
Description: as §1, §2

Galium aparine = assay: as above; conditions: in vivo
Description: as §1, §2

Herba Cirsii Jeponici = assay: as above; conditions: in vivo
Description: as §1, §2

Ipomoea heperacea = assay: as above; conditions: in vivo
Description: as §1, §2

Medicago saliva = assay: as above; conditions: in vivo
Description: as §1, §2

Poa annua L. = assay: as above; conditions: in vivo
Description: as §1, §2

Rumex crispus L. = assay: as above; conditions: in vivo
Description: as §1, §2

[7] = system: Setaria viridis(L.) Beauv; assay: as above; conditions: in vivo
Description: as §1, §2

Sinapis alba = assay: as above; conditions: in vivo
Description: as §1, §2

[8] = system: Dicotyledonous and sedge weeds; assay: Clacyfos weeding spectrum, indoor and field tests (B12); type: in vivo; conditions: recommended dosage of 450 g/hm^2
Description: Combining the results of indoor and field tests of clacyfos, the herbicidal spectrum of clacyfos can be summarized as follows: […]

monocotyledonous weeds = assay: as above; type: in vivo; conditions: 700 g/hm^2 to 800 g/hm^2
Description: as §1, §2

Structure (SMILES): Cc1cc(Cl)ccc1OCC(=O)O [2-methyl-4-chlorophenoxyacetic acid]
- Increase in production compared with the control agent (wheat; Henan, 32.5 g/mu): acid 32.5 g (5.51%)
- phytotoxicity to wheat (wheat; Henan, 32.5 g/mu): a certain phytotoxicity
- Increase in production compared with the control agent (wheat; Zaoyang, 40 g/mu): acid 40 g (20.91%)

Structure (SMILES): COP(=O)(OC)C(C)OC(=O)COc1ccc(Cl)cc1Cl (centres unmarked) [clacyfos, O, O-dimethyl-1-(2,4-dichlorophenoxyacetoxy) ethyl phosphonate]
- Sensitivity [1]: Sensitive
- Visual activity [1]: 85%
- Sensitivity [2]: Resistance
- Visual activity [2]: 0%
- Visual activity [3]: 100%
- Visual activity (Amaranthus retroflexus): 100%
- Visual activity (Beta Vulgaris): 95%
- Visual activity (Brassica campestris): 100%
- Visual activity (Brassica pekinensis): 100%
- Visual activity (Chenopodium album L.): 100%
- Sensitivity (Cyperus microiria): Sensitive
- Visual activity (Cyperus microiria): 90%
- Visual activity (Daucus carota L.): 100%
- Visual activity [4]: 40%
- Visual activity [5]: 30%
- Visual activity (Eclipta prostrata L.): 100%
- Visual activity [6]: 100%
- Visual activity (Galium aparine): 60%
- Visual activity (Herba Cirsii Jeponici): 100%
- Visual activity (Ipomoea heperacea): 100%
- Sensitivity (Medicago saliva): Sensitive
- Visual activity (Medicago saliva): 90%
- Visual activity (Poa annua L.): 50%
- Sensitivity (Rumex crispus L.): Sensitive
- Visual activity (Rumex crispus L.): 80%
- Visual activity [7]: 50%
- Visual activity (Sinapis alba): 95%
- control of the dicotyledonous and sedge weeds listed [8]: can be effectively controlled
- control of the monocotyledonous weeds listed (monocotyledonous weeds): can be controlled
